From publication PMC4187893, “Biochemical and Antiparasitic Properties of Inhibitors of the Plasmodium falciparum Calcium-Dependent Protein Kinase PfCDPK1” (Antimicrobial Agents and Chemotherapy, 2014)
Like-named read-outs stand apart in the source and are kept apart here. Blank lines part the entries; values can stand above or below the compound they belong to.

What was measured:
PfCDPK1 [1] = target: T1, PfCDPK1 (Plasmodium falciparum, UniProt P62344); settings: absence of MTIP; for IC50: mean (SD), n = 2
PbCDPK1 = PbCDPK1 (Plasmodium berghei, UniProt A0A509AHB6); experiment: Rh-ParM ADP sensor IC50 assay, PbCDPK1; settings: for IC50: read-out: IC50 PbCDPK1, Rh-ParM, absence of MTIP, mean (SD)
PvCDPK1 = PvCDPK1 (Plasmodium vivax, UniProt A5KBU9); experiment: Rh-ParM ADP sensor IC50 assay, PvCDPK1; settings: for IC50: read-out: IC50 PvCDPK1, Rh-ParM, absence of MTIP, mean (SD)
[2] = parameters: method as in PMID 24689770; settings: cited from earlier work
PfCDPK1 [3] = target: T1, PfCDPK1; experiment: Kinase-Glo Plus ATP depletion assay; settings: read-out: IC50 ATP depletion, ATP and MTIP at their respective Km values
PfCDPK1 [4] = target: T1, PfCDPK1; experiment: Radiometric assay, incorporation of 33P into MTIP; settings: for IC50 ratio (ATP depletion/radiometric assay): Kinase-Glo Plus IC50 / radiometric IC50; for IC50: read-out: IC50 Radiometric assay, ATP and MTIP at their respective Km values
P. falciparum 3D7 = experiment: FACS assay for parasite growth; settings: Plasmodium falciparum, 3D7, 48 h, read-out: mean EC50, positive controls in parasite growth assay
[5] = read-out: IC50 PfCDPK1, Rh-ParM, ATP at Km
[6] = read-out: IC50 With 30 μM ATP, 30 μM ATP, Rh-ParM ADP detection
[7] = read-out: IC50 With 1 mM ATP, 1 mM ATP, Rh-ParM ADP detection

Sequence of PbCDPK1 (A0A509AHB6 whole entry): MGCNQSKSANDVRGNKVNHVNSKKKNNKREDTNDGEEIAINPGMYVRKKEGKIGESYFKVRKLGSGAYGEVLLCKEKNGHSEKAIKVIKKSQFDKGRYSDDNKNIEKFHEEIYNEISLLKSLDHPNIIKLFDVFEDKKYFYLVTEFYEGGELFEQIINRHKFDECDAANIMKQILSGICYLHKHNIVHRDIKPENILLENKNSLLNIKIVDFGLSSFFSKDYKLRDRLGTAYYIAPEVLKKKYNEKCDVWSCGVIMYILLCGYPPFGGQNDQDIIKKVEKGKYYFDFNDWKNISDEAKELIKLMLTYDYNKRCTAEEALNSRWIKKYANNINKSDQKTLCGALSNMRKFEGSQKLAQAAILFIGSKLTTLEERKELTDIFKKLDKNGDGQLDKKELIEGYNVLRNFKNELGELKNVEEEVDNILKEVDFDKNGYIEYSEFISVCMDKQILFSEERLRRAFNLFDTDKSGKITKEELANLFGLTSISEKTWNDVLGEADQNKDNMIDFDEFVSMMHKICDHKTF
Sequence of PvCDPK1 (A5KBU9 entry or part of it): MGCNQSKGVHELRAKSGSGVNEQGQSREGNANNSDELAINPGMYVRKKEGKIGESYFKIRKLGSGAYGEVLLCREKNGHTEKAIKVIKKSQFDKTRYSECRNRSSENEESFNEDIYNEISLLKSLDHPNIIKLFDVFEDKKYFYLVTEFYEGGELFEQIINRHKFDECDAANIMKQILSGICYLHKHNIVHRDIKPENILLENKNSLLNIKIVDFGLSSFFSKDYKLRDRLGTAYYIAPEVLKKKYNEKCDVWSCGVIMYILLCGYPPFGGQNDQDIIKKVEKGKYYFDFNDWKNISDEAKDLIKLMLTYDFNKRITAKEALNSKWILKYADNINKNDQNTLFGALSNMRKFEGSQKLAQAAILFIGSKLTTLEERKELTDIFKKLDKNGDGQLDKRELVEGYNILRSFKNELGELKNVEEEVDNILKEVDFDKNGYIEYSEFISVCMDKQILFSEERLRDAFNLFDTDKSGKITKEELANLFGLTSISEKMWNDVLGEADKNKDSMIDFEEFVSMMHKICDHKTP
T1 sequence (P62344 whole entry): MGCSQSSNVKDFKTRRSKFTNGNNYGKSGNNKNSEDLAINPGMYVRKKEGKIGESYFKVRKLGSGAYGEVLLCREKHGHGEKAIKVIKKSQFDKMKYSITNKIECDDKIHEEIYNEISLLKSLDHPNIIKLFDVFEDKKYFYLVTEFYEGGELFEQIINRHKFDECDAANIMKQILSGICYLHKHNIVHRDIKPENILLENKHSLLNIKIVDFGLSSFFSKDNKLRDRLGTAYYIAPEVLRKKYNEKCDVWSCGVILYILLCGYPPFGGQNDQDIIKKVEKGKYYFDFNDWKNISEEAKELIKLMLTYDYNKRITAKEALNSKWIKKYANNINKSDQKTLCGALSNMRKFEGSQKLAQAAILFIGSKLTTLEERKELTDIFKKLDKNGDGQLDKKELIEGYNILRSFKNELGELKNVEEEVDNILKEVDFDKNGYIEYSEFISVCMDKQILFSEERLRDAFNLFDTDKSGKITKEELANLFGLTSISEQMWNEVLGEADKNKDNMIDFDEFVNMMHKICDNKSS

SMILES: c1nc(NCC2CC2)ncc1-c1cnc2ccc(NC3CCNCC3)nn12 [Compound 40]
- IC50 (PfCDPK1 [1]; [5]): 52 nM
- IC50 ratio PbCDPK1/PfCDPK1 (PbCDPK1): 4.8
- IC50 (PbCDPK1; ATP at Km, n = 2): 249 nM
- IC50 ratio PvCDPK1/PfCDPK1 (PvCDPK1): 0.9
- IC50 (PvCDPK1; ATP at Km, n = 2): 48 nM

SMILES: CN1CCC(Nc2ccn3ncc(-c4cccc(NC(=O)c5ccccc5)c4)c3n2)CC1 [Compound 28]
- IC50 (PfCDPK1 [1]; [5]): 40 nM
- IC50 ratio PbCDPK1/PfCDPK1 (PbCDPK1): 3.8
- IC50 (PbCDPK1; ATP at Km, n = 2): 152 nM
- IC50 ratio PvCDPK1/PfCDPK1 (PvCDPK1): 0.6
- IC50 (PvCDPK1; ATP at Km, n = 2): 24 nM

SMILES: c1ccc(-n2cc(-c3cnc4ccc(NC5CCNCC5)nn34)cn2)cc1 [Compound 44]
- IC50 (PfCDPK1 [1]; [5]): 107 nM
- IC50 ratio PbCDPK1/PfCDPK1 (PbCDPK1): 4.3
- IC50 (PbCDPK1; ATP at Km, n = 2): 463 nM
- IC50 ratio PvCDPK1/PfCDPK1 (PvCDPK1): 0.6
- IC50 (PvCDPK1; ATP at Km, n = 2): 59 nM

SMILES: CN1CCC(Nc2ccc3ncc(-c4ccc(Nc5ncccc5F)cc4)n3n2)CC1 [Compound 3]
- mlogD [2]: 3.2
- IC50 (PvCDPK1; n = 3): < 10 nM

SMILES: COc1ccc2ncc(-c3ccc(C(=O)NCc4ccccc4)cc3)n2n1 [Compound 12]
- IC50 ratio (IC50 with 1 mM ATP/IC50 with 30 μM ATP) (PfCDPK1 [1]; Rh-ParM): 37
- IC50 (PfCDPK1 [1]; [6]): 107 nM
- IC50 (PfCDPK1 [1]; [7]): 3910 nM
- IC50 (PfCDPK1 [3]): 200 nM
- IC50 ratio (ATP depletion/radiometric assay) (PfCDPK1 [4]): 5.9
- IC50 (PfCDPK1 [4]): 34 nM

- IC50 ratio (IC50 with 1 mM ATP/IC50 with 30 μM ATP) (PfCDPK1 [1]; Rh-ParM): 39
- IC50 (PfCDPK1 [1]; [6]): 77 nM
- IC50 (PfCDPK1 [1]; [7]): 2970 nM
SMILES: O=C(NCc1ccc(N2CCCC2)cc1)c1ccc(-n2cnc3cccnc32)cc1 [Compound 16]

SMILES: CC(=O)Nc1cccc(-c2cnc3ccc(NCCc4ccccn4)nn23)c1 [Compound 10]
- IC50 ratio (IC50 with 1 mM ATP/IC50 with 30 μM ATP) (PfCDPK1 [1]; Rh-ParM): 27
- IC50 (PfCDPK1 [1]; [6]): 64 nM
- IC50 (PfCDPK1 [1]; [7]): 1700 nM
- IC50 (PfCDPK1 [3]): 65 nM
- IC50 ratio (ATP depletion/radiometric assay) (PfCDPK1 [4]): 2.7
- IC50 (PfCDPK1 [4]): 24 nM

SMILES: Fc1cccnc1Nc1ncc(-c2cnc3ccc(NC4CCC(N5CCNCC5)CC4)nn23)cn1 (stereo not drawn) [Compound 46]
- IC50 (PfCDPK1 [1]; [5]): 13 nM
- IC50 ratio PbCDPK1/PfCDPK1 (PbCDPK1): 2.8
- IC50 (PbCDPK1; ATP at Km, n = 2): 38 nM
- IC50 ratio PvCDPK1/PfCDPK1 (PvCDPK1): 0.8
- IC50 (PvCDPK1; ATP at Km, n = 2): 11 nM

- IC50 ratio (IC50 with 1 mM ATP/IC50 with 30 μM ATP) (PfCDPK1 [1]; Rh-ParM): >3
- IC50 (PfCDPK1 [1]; [6]): 31200 nM
- IC50 (PfCDPK1 [1]; [7]): > 100000 nM
SMILES: COc1ccc(-n2ccnc(SCC(=O)Nc3ccc(C)cc3C)c2=O)cc1 [Compound 24]

SMILES: NC(=O)c1ccc(-c2cnn3ccc(NCCc4cccnc4)nc23)cc1 [Compound 15]
- IC50 ratio (IC50 with 1 mM ATP/IC50 with 30 μM ATP) (PfCDPK1 [1]; Rh-ParM): 12
- IC50 (PfCDPK1 [1]; [6]): 23 nM
- IC50 (PfCDPK1 [1]; [7]): 270 nM
- IC50 (PfCDPK1 [3]): 32 nM
- IC50 ratio (ATP depletion/radiometric assay) (PfCDPK1 [4]): 2.7
- IC50 (PfCDPK1 [4]): 12 nM

- IC50 (PfCDPK1 [3]): 41 nM
- IC50 ratio (ATP depletion/radiometric assay) (PfCDPK1 [4]): 4.1
- IC50 (PfCDPK1 [4]): 10 nM
SMILES: c1cncc(CCNc2ccc3ncc(-c4ccc5c(c4)OCO5)n3n2)c1 [Compound 50]

- EC50 (P. falciparum 3D7): 13 nM
SMILES: C[C@@H]1CC[C@H]2[C@@H](C)C(=O)O[C@@H]3O[C@@]4(C)CC[C@@H]1[C@]32OO4 [artemisinin, reference compound]

- IC50 ratio (IC50 with 1 mM ATP/IC50 with 30 μM ATP) (PfCDPK1 [1]; Rh-ParM): 53
- IC50 (PfCDPK1 [1]; [6]): 86 nM
- IC50 (PfCDPK1 [1]; [7]): 4530 nM
SMILES: CC(C)Oc1ccc(CNC(=O)c2ccc(-n3cnc4cccnc43)cc2)cc1 [Compound 18]

SMILES: CC(C)CNc1ncc(-c2cnc3ccc(NC4CCC(N)CC4)nn23)cn1 (stereo not drawn) [Compound 29]
- IC50 (PfCDPK1 [1]; [5]): 86 nM
- IC50 ratio PbCDPK1/PfCDPK1 (PbCDPK1): 4.6
- IC50 (PbCDPK1; ATP at Km, n = 2): 392 nM
- IC50 ratio PvCDPK1/PfCDPK1 (PvCDPK1): 0.9
- IC50 (PvCDPK1; ATP at Km, n = 2): 80 nM

- EC50 (P. falciparum 3D7): 8 nM
SMILES: CCc1nc(N)nc(N)c1-c1ccc(Cl)cc1 [Pyrimethamine, reference compound]

SMILES: Fc1cccnc1Nc1ccc(-c2cnc3ccc(NC4CCC(N5CCCC5)CC4)nn23)cn1 (stereo not drawn) [Compound 4]
- mlogD [2]: 2.8
- IC50 (PbCDPK1; n = 3): 43 nM
- IC50 (PvCDPK1; n = 3): < 10 nM

SMILES: Fc1cccnc1Nc1ccc(-c2cnc3ccc(NC4CCC(N5CCCC5)CC4)nn23)cc1 (stereo not drawn) [Compound 5]
- mlogD [2]: 3.3
